# Like-named read-outs stand apart in the source and are kept apart here.
# Legend:
# [1] = test system: TrkA; parameters: method as in printed; conditions: preclinical, ref not given; cited from earlier work
# [2] = test system: Ros; parameters: method as in printed; conditions: preclinical, ref not given; cited from earlier work
# [3] = test system: patient-derived xenograft (PDX) models across multiple tumour types; conditions: preclinical, including PDX models; cited from earlier work
# [4] = test system: BSEP; parameters: method as in printed; conditions: preclinical testing, ref not given; cited from earlier work
# [5] = Plasma pharmacokinetics in phase 1 patients; type: in vivo, human
# Description: In the expansion cohort, blood samples were collected on Day 1 for Cycle 0 and Day 28 of Cycle 1. Additional samples were drawn prior to dosing on Day 15 of subsequent cycles.
# Samples were analysed in accordance with all applicable United States Federal Drug Administration (FDA) and Organisation for Economic Co-operation and Development (OECD) regulations. […] After evaporation of the extraction solvent, sample extracts were reconstituted and analysed by reversed-phase high-performance liquid chromatography using a Waters Atlantis dC18 column. The mobile phase was nebulised using heated nitrogen in a Z-spray source/interface set to electrospray positive ionisation. The ionised compounds were detected using mass spectrometry. The lower limit of quantification was 20 pg/ml. Samples were analysed at Microconstants, San Diego, CA.
# [6] = test system: FGFR1; parameters: method as in printed; conditions: preclinical, ref not given; cited from earlier work
# [7] = test system: Bmx; parameters: method as in printed; conditions: preclinical, ref not given; cited from earlier work
# [8] = test system: patients with advanced solid tumours; assay: Phase 1 safety: treatment-related adverse events (CTCAE v4.03); type: in vivo, human
# Description: All patients who received at least one dose of CFI-400945 were included in analyses of the safety-evaluable population. Data cut-off for the safety-evaluable population was June 5, 2018. Adverse events (AEs) were assessed according to the National Cancer Institute (NCI) Common Terminology Criteria for Adverse Events (CTCAE) v4.03. Investigators determined the causal relationship of an AE as either unrelated, possibly, probably, or related to study drug. Further information is available in Supplementary Information 1d.
# Investigators managed any AE until resolution, stabilization, or until the AE was considered no longer clinically significant. All AE and serious AE (SAE) were recorded in source documents and individual case report forms from the time of first dose of study drug until 30 days following the last dose of study drug.
# Safety evaluations were conducted at screening and during Cycle 1 on Day 1, 2, 4, 8, 11, 15, 22, and 28. In the expansion cohort, following the run-in amendment, safety evaluations were conducted on Cycle 0 Day 1, 2, 4, 8, and 11, then as above for Cycle 1. Evaluations included pre-defined combinations of medical history, physical examination, vital signs, clinical laboratory studies, and ECOG performance status.
# [9] = test system: PLK2; parameters: method as in printed; conditions: preclinical, ref not given; cited from earlier work
# [10] = test system: FGFR2; parameters: method as in printed; conditions: preclinical, ref not given; cited from earlier work
# [11] = test system: AurB; parameters: method as in printed; conditions: preclinical, ref not given; cited from earlier work
# [12] = test system: OCT1; parameters: method as in printed; conditions: preclinical testing, ref not given; cited from earlier work
# [13] = test system: rodents; parameters: method as in printed; conditions: toxicology studies, ref not given; cited from earlier work
# [14] = safety-evaluable population (n = 52)
structure (smiles),measurement,setting,value
COc1ccc2c(c1)[C@]1(C[C@H]1c1ccc3c(/C=C/c4ccc(CN5C[C@@H](C)O[C@@H](C)C5)cc4)n[nH]c3c1)C(=O)N2 [CFI-400945],IC50,[1],< 0.1 µM
same,IC50,[2],< 0.1 µM
same,in vivo antitumour activity,[3],robust in vivo antitumour activity
same,inhibition of BSEP,[4],inhibitor
same,dose proportionality of exposure,[5]; 3-96 mg,generally dose proportional
same,"exposure at Day 28 higher than exposure at Day 1, average",[5]; across all dose levels,37%
same,AUC(0-t),"[5]; human, plasma, oral, 64 mg, Day 1, read-out: AUC0–24 h",0.428 µg·h/mL
same,Cmax,"[5]; human, plasma, oral, 64 mg, Day 1, read-out: average Cmax",0.037 µg/mL
same,AUC(0-t),"[5]; human, plasma, oral, 64 mg, after 28 days of dosing, read-out: AUC0–24 h",0.564 µg·h/mL
same,Cmax,"[5]; human, plasma, oral, 64 mg, after 28 days of dosing, read-out: average Cmax",0.044 µg/mL
same,AUC(0-t),"[5]; human, plasma, oral, Day 1, read-out: AUC0–24 h values associated with grade 3/4 neutropenia",> 0.4 µg·h/mL
same,Cmax,"[5]; human, plasma, oral, Day 1, read-out: Cmax values associated with grade 3/4 neutropenia",≥ 0.038 µg/mL
same,half-life,"[5]; human, plasma, oral, 64 mg, Day 1, read-out: half-life (t1/2) (converted)",9 h
same,time to maximum plasma concentration (Cmax) after dosing,"[5]; oral, fasting state",2 to 4 h
same,IC50,[6],< 0.1 µM
same,IC50,[7],< 0.1 µM
same,grade 2 neutropenia,[8]; 48 mg dose level,one patient
same,long-term tolerability: time one patient remained on treatment,"[8]; 48 mg, at data cut-off",> 3 years
same,patients dose reduced,[8]; 64 mg,No patients
same,patients dose reduced,"[8]; 3 patients, at 72 mg and 96 mg dose levels, recurrent neutropenia",6%
same,"Anorexia, treatment-related, Grade 1/2",[8]; 3–32 mg cohort (n = 21),4 (19) N (%)
same,"Anorexia, treatment-related, Grade 3/4",[8]; 3–32 mg cohort (n = 21),0 (0) N (%)
same,"Dehydration, treatment-related, Grade 1/2",[8]; 3–32 mg cohort (n = 21),1 (5) N (%)
same,"Dehydration, treatment-related, Grade 3/4",[8]; 3–32 mg cohort (n = 21),0 (0) N (%)
same,"Diarrhoea, treatment-related, Grade 1/2",[8]; 3–32 mg cohort (n = 21),4 (19) N (%)
same,"Diarrhoea, treatment-related, Grade 3/4",[8]; 3–32 mg cohort (n = 21),0 (0) N (%)
same,"Dyspepsia, treatment-related, Grade 1/2",[8]; 3–32 mg cohort (n = 21),1 (5) N (%)
same,"Dyspepsia, treatment-related, Grade 3/4",[8]; 3–32 mg cohort (n = 21),0 (0) N (%)
same,"Fatigue, treatment-related, Grade 1/2",[8]; 3–32 mg cohort (n = 21),5 (24) N (%)
same,"Fatigue, treatment-related, Grade 3/4",[8]; 3–32 mg cohort (n = 21),0 (0) N (%)
same,"Hypomagnesaemia, treatment-related, Grade 1/2",[8]; 3–32 mg cohort (n = 21),0 (0) N (%)
same,"Hypomagnesaemia, treatment-related, Grade 3/4",[8]; 3–32 mg cohort (n = 21),0 (0) N (%)
same,"Nausea, treatment-related, Grade 1/2",[8]; 3–32 mg cohort (n = 21),3 (14) N (%)
same,"Nausea, treatment-related, Grade 3/4",[8]; 3–32 mg cohort (n = 21),0 (0) N (%)
same,"Neutropenia, treatment-related, Grade 1/2",[8]; 3–32 mg cohort (n = 21),0 (0) N (%)
same,"Neutropenia, treatment-related, Grade 3/4",[8]; 3–32 mg cohort (n = 21),0 (0) N (%)
same,"Vomiting, treatment-related, Grade 1/2",[8]; 3–32 mg cohort (n = 21),1 (5) N (%)
same,"Vomiting, treatment-related, Grade 3/4",[8]; 3–32 mg cohort (n = 21),0 (0) N (%)
same,"Anorexia, All trAEs",[8]; 3–96 mg cohort (n = 52),10 (19) N (%)
same,"Dehydration, All trAEs",[8]; 3–96 mg cohort (n = 52),3 (6) N (%)
same,"Diarrhoea, All trAEs",[8]; 3–96 mg cohort (n = 52),11 (21) N (%)
same,"Dyspepsia, All trAEs",[8]; 3–96 mg cohort (n = 52),3 (6) N (%)
same,"Fatigue, All trAEs",[8]; 3–96 mg cohort (n = 52),19 (37) N (%)
same,"Hypomagnesaemia, All trAEs",[8]; 3–96 mg cohort (n = 52),3 (6) N (%)
same,"Nausea, All trAEs",[8]; 3–96 mg cohort (n = 52),14 (27) N (%)
same,"Neutropenia, All trAEs",[8]; 3–96 mg cohort (n = 52),11 (21) N (%)
same,"Vomiting, All trAEs",[8]; 3–96 mg cohort (n = 52),4 (8) N (%)
same,grade 3/4 neutropenic events occurring in Cycle 1,[8]; 6/10 events,60%
same,"grade 3/4 treatment-related neutropenia, patients","[8]; 10/52 patients, all dose levels",19%
same,patients with dose interruptions,[8]; 27 of 52 patients,52%
same,"Anorexia, treatment-related, Grade 1/2",[8]; 48–64 mg cohort (n = 18),2 (11) N (%)
same,"Anorexia, treatment-related, Grade 3/4",[8]; 48–64 mg cohort (n = 18),0 (0) N (%)
same,"Dehydration, treatment-related, Grade 1/2",[8]; 48–64 mg cohort (n = 18),1 (6) N (%)
same,"Dehydration, treatment-related, Grade 3/4",[8]; 48–64 mg cohort (n = 18),0 (0) N (%)
same,"Diarrhoea, treatment-related, Grade 1/2",[8]; 48–64 mg cohort (n = 18),3 (17) N (%)
same,"Diarrhoea, treatment-related, Grade 3/4",[8]; 48–64 mg cohort (n = 18),1 (6) N (%)
same,"Dyspepsia, treatment-related, Grade 1/2",[8]; 48–64 mg cohort (n = 18),1 (6) N (%)
same,"Dyspepsia, treatment-related, Grade 3/4",[8]; 48–64 mg cohort (n = 18),0 (0) N (%)
same,"Fatigue, treatment-related, Grade 1/2",[8]; 48–64 mg cohort (n = 18),9 (50) N (%)
same,"Fatigue, treatment-related, Grade 3/4",[8]; 48–64 mg cohort (n = 18),0 (0) N (%)
same,"Hypomagnesaemia, treatment-related, Grade 1/2",[8]; 48–64 mg cohort (n = 18),1 (6) N (%)
same,"Hypomagnesaemia, treatment-related, Grade 3/4",[8]; 48–64 mg cohort (n = 18),0 (0) N (%)
same,"Nausea, treatment-related, Grade 1/2",[8]; 48–64 mg cohort (n = 18),5 (28) N (%)
same,"Nausea, treatment-related, Grade 3/4",[8]; 48–64 mg cohort (n = 18),0 (0) N (%)
same,"Neutropenia, treatment-related, Grade 1/2",[8]; 48–64 mg cohort (n = 18),1 (6) N (%)
same,"Neutropenia, treatment-related, Grade 3/4",[8]; 48–64 mg cohort (n = 18),3 (17) N (%)
same,"Vomiting, treatment-related, Grade 1/2",[8]; 48–64 mg cohort (n = 18),1 (6) N (%)
same,"Vomiting, treatment-related, Grade 3/4",[8]; 48–64 mg cohort (n = 18),1 (6) N (%)
same,"Anorexia, treatment-related, Grade 1/2",[8]; 72–96 mg cohort (n = 13),4 (31) N (%)
same,"Anorexia, treatment-related, Grade 3/4",[8]; 72–96 mg cohort (n = 13),0 (0) N (%)
same,"Dehydration, treatment-related, Grade 1/2",[8]; 72–96 mg cohort (n = 13),1 (8) N (%)
same,"Dehydration, treatment-related, Grade 3/4",[8]; 72–96 mg cohort (n = 13),0 (0) N (%)
same,"Diarrhoea, treatment-related, Grade 1/2",[8]; 72–96 mg cohort (n = 13),3 (23) N (%)
same,"Diarrhoea, treatment-related, Grade 3/4",[8]; 72–96 mg cohort (n = 13),0 (0) N (%)
same,"Dyspepsia, treatment-related, Grade 1/2",[8]; 72–96 mg cohort (n = 13),1 (8) N (%)
same,"Dyspepsia, treatment-related, Grade 3/4",[8]; 72–96 mg cohort (n = 13),0 (0) N (%)
same,"Fatigue, treatment-related, Grade 1/2",[8]; 72–96 mg cohort (n = 13),5 (38) N (%)
same,"Fatigue, treatment-related, Grade 3/4",[8]; 72–96 mg cohort (n = 13),0 (0) N (%)
same,"Hypomagnesaemia, treatment-related, Grade 1/2",[8]; 72–96 mg cohort (n = 13),2 (15) N (%)
same,"Hypomagnesaemia, treatment-related, Grade 3/4",[8]; 72–96 mg cohort (n = 13),0 (0) N (%)
same,"Nausea, treatment-related, Grade 1/2",[8]; 72–96 mg cohort (n = 13),6 (46) N (%)
same,"Nausea, treatment-related, Grade 3/4",[8]; 72–96 mg cohort (n = 13),0 (0) N (%)
same,"Neutropenia, treatment-related, Grade 1/2",[8]; 72–96 mg cohort (n = 13),0 (0) N (%)
same,"Neutropenia, treatment-related, Grade 3/4",[8]; 72–96 mg cohort (n = 13),7 (54) N (%)
same,"Vomiting, treatment-related, Grade 1/2",[8]; 72–96 mg cohort (n = 13),1 (8) N (%)
same,"Vomiting, treatment-related, Grade 3/4",[8]; 72–96 mg cohort (n = 13),0 (0) N (%)
same,median time for neutrophils to recover to grade ≤1,[8]; in vivo,7 days
same,median time to first grade 3/4 neutropenic event,[8]; in vivo,18 days
same,"time for neutrophils to recover to grade ≤1, range",[8]; in vivo,6 to 14 days
same,"time to first grade 3/4 neutropenic event, range",[8]; in vivo,14 to 126 days
same,treatment-related AEs leading to study discontinuation,"[8]; one DLT at 72 mg, one DLT in 64 mg cohort",two patients
same,"treatment-related anorexia, patients",[8]; [14],19%
same,"treatment-related dehydration, patients",[8]; [14],6%
same,"treatment-related diarrhoea, patients",[8]; [14],21%
same,"treatment-related dyspepsia, patients",[8]; [14],6%
same,"treatment-related fatigue, patients",[8]; [14],37%
same,"treatment-related hypomagnesaemia, patients",[8]; [14],6%
same,"treatment-related neutropenia, patients",[8]; [14],21%
same,"treatment-related vomiting, patients",[8]; [14],8%
same,IC50,[9],> 50 µM
same,IC50,[10],< 0.1 µM
same,IC50,[11],< 0.1 µM
same,inhibition of OCT1,[12],inhibitor
same,primary toxicities,[13],"haematopoietic effects (myeloid suppression, bone marrow hypocellularity)"

# From paper PMC6738068 (British Journal of Cancer, 2019)
